Results published in US20220119460A1, “Means and Methods to Overrule Glucose-Mediated Repression of Respiration in Yeast” (priority 2019, published 2022).

Assays:
[1] = test system: S. cerevisiae strain AN63; assay: Population growth lag time measurement, gradual glucose-to-galactose shift with antimycin A; format: cell-based; details: 3 μg/ml antimycin A in medium; 0.5% glucose plus 5% galactose; wild type and 41 respiratory deletion mutants (FIG. 2B)
Procedure: Population Growth Lag Time Measurements (Antimycin a Treatment and Glucose-to-Galactose Shift).
All population growth measurements were performed using Bioscreen C machines (Growth Curves USA). For the gradual shift experiments, cells were inoculated in a 96-well plate containing YP plus 5% glucose (high-glucose [HG]) medium and serially diluted for growth overnight at 30° C. shaking at 900 rpm. Cultures at an OD600 of 0.1 were transferred to a new plate and serially diluted in fresh HG medium for growth overnight. The next day, cultures at an OD600 of 0.1 were washed three times into YP plus 0.5% glucose (low glucose [LG]) plus the appropriate carbohydrate source, with or without 3 μg/ml of antimycin A, and diluted so that the initial cell concentration for the Bioscreen C measurements was 10^5 cells/ml. […]
where the cx subscript stands for corrected and the me subscript stands for measured.
(§1) The growth rate was then obtained by calculating the discrete derivative of In(OD600,me) versus time. […] In the case of two exponential phases in the growth curve (i.e., conditions with a mix of carbon sources in the medium), the maximum growth rate for each phase (maxR1, maxR2) was detected. Once these parameters were determined, the lag time was calculated by the time difference between two time points: the start and the end. […]

[2] = test system: S. cerevisiae strain AN63; assay: Growth rate in stable sugar conditions (5% galactose) with antimycin A; format: cell-based; details: 41 respiratory deletion mutants, compared with slowest growing mutants without the compound (FIG. 2D)
Procedure: All population growth measurements were performed using Bioscreen C machines (Growth Curves USA). For the gradual shift experiments, cells were inoculated in a 96-well plate containing YP plus 5% glucose (high-glucose [HG]) medium and serially diluted for growth overnight at 30° C. shaking at 900 rpm. Cultures at an OD600 of 0.1 were transferred to a new plate and serially diluted in fresh HG medium for growth overnight. The next day, cultures at an OD600 of 0.1 were washed three times into YP plus 0.5% glucose (low glucose [LG]) plus the appropriate carbohydrate source, with or without 3 μg/ml of antimycin A, and diluted so that the initial cell concentration for the Bioscreen C measurements was 10^5 cells/ml. OD600 measurements were taken every 15 min for 7 days or until the cultures reached stationary phase.
The same procedure was followed for the stationary growth experiments, replacing the HG medium from pregrowth and the final growth medium with 5% galactose. […]
as §1

Substance: antimycin A
- prolongation of the lag times [1]: up to 2.2 fold
- growth rate in the presence of antimycin A [2]: equally low growth rates
